In patent US10564150B2, “Cell mediated immune response assay” (priority 2012, dated 2020):

Legend:
[1] = tested on: whole blood from donors; IFN-gamma response to CMV antigens; assay: QFN CMV assay with four different non-reducing sugars; format: cell-based, human; settings: for response to the CMV antigens (percentage increase in IFN-gamma IU/ml over the non-additive tube): 2 mg/ml final blood concentration, 5 donors, background subtracted
Protocol: For this experiment, four different non-reducing sugars were added to QFN CMV antigen tubes and a corresponding Nil tube. To reach a final blood concentration of 2 mg/ml, a corresponding solution of sucrose, trehalose, mannitol and raffinose in PBS was added to whole blood obtained from 5 donors. […] The assay was run in accordance with the QFN package insert which is an established assay. The x-axis (see FIG. 3) indicates the tested conditions. The background (value from Nil tubes with/without the addition of the respective sugar) was subtracted from the corresponding CMV tube and the percentage increase in the IFN-gamma value (IU/ml) over the non-additive tube calculated (y axis).

[2] = tested on: whole blood from subjects with MTB infection; IFN-gamma response to Mycobacterium tuberculosis antigens ESAT-6 and CFP-10; assay: QFN-TB antigen tubes manufactured with or without trehalose; format: cell-based, human; settings: trehalose tube versus sugar free tube; 20 subjects with MTB infection; paired one-tailed t test, P=0.0005
[3] = tested on: blood from healthy donors; CD8+ T cells, IFN-gamma response to Cytomegalovirus peptides; assay: QFN-CMV assay with addition of trehalose; format: cell-based, human
Protocol: QuantiFERON (QFN) CMV is a CE registered assay monitoring T cell immune memory directed against antigens derived from the Cytomegalovirus. The QFN-CMV blood tubes contain peptides designed to specifically activate CD8+ T cells to produce interferon gamma (IFN-gamma). These tubes only contain peptide and heparin, with no addition of any sugar molecule.
This experiment aimed to investigate the effect on the IFN-gamma response when the non-reducing sugar, trehalose, was added to QFN-CMV tubes. 0, 1, 5 or 10 mg/ml of a trehalose (in water) solution was added to QFN-CMV blood collection tubes. 1 ml of blood from 17 healthy donors with a known anti-CMV T cell response was then added to each of the four tubes, and in addition a Nil tube and a Mitogen tube were run as controls. The QFN assay was then run according to the package insert. All values had the Nil value subtracted. IFN-gamma levels in IU/ml were normalized against the respective QFN-CMV+0 mg/ml trehalose (untreated control) to generate a ‘fold-change’ unit; to control for inter-donor variation in response magnitude. Healthy donors without a detectable anti-CMV immune response were included to control against non-specific IFN-gamma induction by trehalose.

[4] = tested on: whole blood IFN-gamma response to EBNA-1 from the Epstein-Barr virus; assay: QuantiFERON assay measuring anti-EBV cellular immune responses (EBNA-1 peptides) plus/minus trehalose; format: cell-based
Protocol: Investigations using QuantiFERON technology to measure responses to the model antigen EBNA-1 from the Epstein-Barr virus were performed to assess increases in assay sensitivity induced by the addition of non-reducing sugars to the incubation mixture. Briefly, EBNA-1 peptides were added to a blood collection tube, plus/minus 3 concentrations of a trehalose solution (0.5, 1.0 or 2.0 mg/ml trehalose). QuantiFERON assay measuring anti-EBV cellular immune responses was run according to the manufacturer's instructions. The IFN-gamma response was determined and compared depending on the concentration of trehalose. […] A concentration of 2 mg/ml trehalose provided the best results in this test assay.

OC[C@@H](O)[C@@H](O)[C@H](O)[C@H](O)CO [mannitol]
response to the CMV antigens (percentage increase in IFN-gamma IU/ml over the non-additive tube) [1]: increased response

OC[C@H]1O[C@H](OC[C@H]2O[C@H](O[C@]3(CO)O[C@H](CO)[C@@H](O)[C@@H]3O)[C@H](O)[C@@H](O)[C@@H]2O)[C@H](O)[C@@H](O)[C@H]1O [raffinose]
response to the CMV antigens (percentage increase in IFN-gamma IU/ml over the non-additive tube) [1]: increased response

OC[C@H]1O[C@@](CO)(O[C@H]2O[C@H](CO)[C@@H](O)[C@H](O)[C@H]2O)[C@@H](O)[C@@H]1O [sucrose]
response to the CMV antigens (percentage increase in IFN-gamma IU/ml over the non-additive tube) [1]: increased response

OC[C@H]1O[C@H](O[C@H]2O[C@H](CO)[C@@H](O)[C@H](O)[C@H]2O)[C@H](O)[C@@H](O)[C@@H]1O [trehalose]
quantitative response of the assay (IFN-gamma IU/ml, nil subtracted) [2]: significantly enhanced
response to the CMV antigens (percentage increase in IFN-gamma IU/ml over the non-additive tube) [1]: increased response
rank of the increase among the four non-reducing sugars ([1]; 2 mg/ml, order trehalose, mannitol, sucrose, raffinose): highest increase
mean level of IFN-gamma (fold change versus matched untreated control) ([3]; 0, 1, 5 or 10 mg/ml trehalose, 17 healthy donors with known anti-CMV T cell response, Nil subtracted): concentration-dependent increase
IFN-gamma fold change versus untreated control, significance ([3]; 5 and 10 mg/ml trehalose, Friedmans test with Dunns multiple comparisons test): significant increase
background level of IFN-gamma in CMV-negative control donors ([3]; trehalose added, data not shown): No significant increase
IFN-gamma response ([4]; 0.5, 1.0 or 2.0 mg/ml trehalose, with increasing concentration): increase in IFN-gamma response
trehalose concentration providing the best results ([4]; of 0.5, 1.0 and 2.0 mg/ml tested): 2 mg/mL
